Data as given in patent US20240294522A1 (Lead Discovery Center GmbH, priority 2021, published 2024).

Legend:
GRK5 = biological target: T1, GRK5 (Homo sapiens, UniProt P34947); test: Lance Kinase Activity Assay, GRK5; conditions: biochemical Lance kinase activity assay; class symbols A-F; read-out: GRK5 LANCE Assay (IC-50)
T1 construct: purchased Thermo Scientific
How it was run: (§1)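 IC50s from sigmoidal dose-response over 0.0025-10 μM compound, with phosphorylated ULight substrate detected by Eu anti-phospho antibody FRET after EDTA quench.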

GRK2 = biological target: T2, GRK2 (Homo sapiens, UniProt P25098); test: Lance Kinase Activity Assay, GRK2; conditions: biochemical Lance kinase activity assay; class symbols A-F; read-out: GRK2 LANCE Assay (IC-50)
T2 construct: purchased Thermo Scientific
T2 sequence (P25098 1-689): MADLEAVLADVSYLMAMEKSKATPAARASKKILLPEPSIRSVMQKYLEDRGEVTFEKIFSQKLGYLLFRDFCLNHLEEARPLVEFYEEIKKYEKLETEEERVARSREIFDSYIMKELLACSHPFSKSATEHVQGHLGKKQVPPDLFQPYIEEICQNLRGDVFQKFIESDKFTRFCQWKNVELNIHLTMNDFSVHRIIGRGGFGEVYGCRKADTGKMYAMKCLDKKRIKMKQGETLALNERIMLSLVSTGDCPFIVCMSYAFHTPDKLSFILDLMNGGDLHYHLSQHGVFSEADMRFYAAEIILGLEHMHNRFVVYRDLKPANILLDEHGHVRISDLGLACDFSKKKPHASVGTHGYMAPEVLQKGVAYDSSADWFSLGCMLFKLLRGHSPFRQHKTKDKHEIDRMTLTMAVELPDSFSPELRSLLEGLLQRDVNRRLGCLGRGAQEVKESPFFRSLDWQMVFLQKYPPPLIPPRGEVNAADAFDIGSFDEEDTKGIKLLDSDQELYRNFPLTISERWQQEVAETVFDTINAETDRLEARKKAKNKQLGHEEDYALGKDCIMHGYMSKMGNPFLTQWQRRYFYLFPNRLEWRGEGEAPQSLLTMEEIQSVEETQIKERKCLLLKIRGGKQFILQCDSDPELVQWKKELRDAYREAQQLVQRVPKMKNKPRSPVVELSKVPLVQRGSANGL
How it was run: as §1

T1 sequence (P34947 whole entry): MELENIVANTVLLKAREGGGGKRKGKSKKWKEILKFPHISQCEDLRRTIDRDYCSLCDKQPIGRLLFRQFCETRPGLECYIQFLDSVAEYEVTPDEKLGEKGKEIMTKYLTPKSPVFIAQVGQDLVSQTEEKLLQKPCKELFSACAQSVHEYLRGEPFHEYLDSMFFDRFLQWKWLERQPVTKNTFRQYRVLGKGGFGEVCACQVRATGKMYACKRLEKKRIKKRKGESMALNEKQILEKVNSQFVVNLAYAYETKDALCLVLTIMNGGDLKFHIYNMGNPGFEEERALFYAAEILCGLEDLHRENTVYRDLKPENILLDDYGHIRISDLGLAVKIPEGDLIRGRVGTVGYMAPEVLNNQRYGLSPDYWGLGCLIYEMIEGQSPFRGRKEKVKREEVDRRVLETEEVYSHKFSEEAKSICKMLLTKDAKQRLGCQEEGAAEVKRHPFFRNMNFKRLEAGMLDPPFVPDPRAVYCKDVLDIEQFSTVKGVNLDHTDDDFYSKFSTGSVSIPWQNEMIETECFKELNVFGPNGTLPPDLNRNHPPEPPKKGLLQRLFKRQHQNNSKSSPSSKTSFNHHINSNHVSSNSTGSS

Compound	IC50 (GRK5) [nM]	IC50 (GRK2) [nM]
COc1ccc([C@@H](C)NC(=O)/C(C#N)=C/c2c[nH]c3ncc(O[C@@H]4CCOC4)cc23)cc1OC [Example 107, (E)-2-cyano-N-((R)-1-(3,4-dimethoxyphenyl)ethyl)-3-(5-(((R)-tetrahydrofuran-3-yl)oxy)-1H-pyrrolo[2,3-b]pyridin-3-yl)acrylamide]	≤ 50	500 to 1000
COc1ccc(C(CCN(C)C)NC(=O)/C(C#N)=C/c2c[nH]c3ncccc23)cc1 (centres unmarked) [Example 51, (E)-2-cyano-N-(3-(dimethylamino)-1-(4-methoxyphenyl)propyl)-3-(1H-pyrrolo[2,3-b]pyridin-3-yl)acrylamide]	≤ 50	500 to 1000
COc1ccc([C@@H](C)NC(=O)/C=C/c2c[nH]c3ncc(-c4ccccc4CN4CCOCC4)cc23)cc1OC [Example 206, (R,E)-N-(1-(3,4-dimethoxyphenyl)ethyl)-3-(5-(2-(morpholinomethyl)phenyl)-1H-pyrrolo[2,3-b]pyridin-3-yl)acrylamide]	1000 to 10000	> 10000
N#C/C(=C\c1c[nH]c2ncc(C(F)(F)F)cc12)C(=O)NCc1ccccc1 [Example 71, (E)-N-benzyl-2-cyano-3-(5-(trifluoromethyl)-1H-pyrrolo[2,3-b]pyridin-3-yl)acrylamide]	1000 to 10000	> 10000
N#C/C(=C\c1c[nH]c2ncccc12)C(=O)NCc1ccccc1S(=O)(=O)N1CCOCC1 [Example 41, (E)-2-cyano-N-(2-(morpholinosulfonyl)benzyl)-3-(1H-pyrrolo[2,3-b]pyridin-3-yl)acrylamide]	100 to 500	1000 to 10000
COc1ccc([C@@H](C)NC(=O)/C=C/c2c[nH]c3ncc(-c4cnn(CC(C)O)c4)cc23)cc1OC (stereo partly drawn) [Example 214, (E)-N-((R)-1-(3,4-dimethoxyphenyl)ethyl)-3-(5-(1-(2-hydroxypropyl)-1H-pyrazol-4-yl)-1H-pyrrolo[2,3-b]pyridin-3-yl)acrylamide]	≤ 50	1000 to 10000
COc1cc(C(C)NC(=O)/C(C#N)=C/c2c[nH]c3ncc(-c4cnn(C)c4)cc23)ccc1[S+](C)[O-] (centres unmarked) [Example 256, (E)-2-cyano-N-(1-(3-methoxy-4-(methylsulfinyl)phenyl)ethyl)-3-(5-(1-methyl-1H-pyrazol-4-yl)-1H-pyrrolo[2,3-b]pyridin-3-yl)acrylamide]	50 to 100	1000 to 10000
N#C/C(=C\c1c[nH]c2ncc(Cl)cc12)C(=O)NCc1cc(F)cc(F)c1 [Example 75, (E)-3-(5-chloro-1H-pyrrolo[2,3-b]pyridin-3-yl)-2-cyano-N-(3,5-difluorobenzyl)acrylamide]	1000 to 10000	> 10000
C[C@@H](NC(=O)/C(C#N)=C/c1c[nH]c2ncccc12)c1cccc(C(F)(F)F)c1 [Example 18, (R,E)-2-cyano-3-(1H-pyrrolo[2,3-b]pyridin-3-yl)-N-(1-(3-(trifluoromethyl)phenyl)ethyl)acrylamide]	100 to 500	500 to 1000
N#C/C(=C\c1c[nH]c2ncc(Cl)cc12)C(=O)NCc1ccc(F)cc1 [Example 72, (E)-3-(5-chloro-1H-pyrrolo[2,3-b]pyridin-3-yl)-2-cyano-N-(4-fluorobenzyl)acrylamide]	1000 to 10000	1000 to 10000
COc1ccc([C@@H](C)NC(=O)/C(C#N)=C/c2c[nH]c3nccc(-c4ccccc4)c23)cc1OC [Example 175]	≤ 50	1000 to 10000
COc1ccc([C@@H](C)NC(=O)/C(C#N)=C/c2c[nH]c3ncc(-c4ccc(N5CCN(C)CC5)cc4OC)cc23)cc1OC [Example 153]	≤ 50	500 to 1000

Continued, values first:

IC50 (GRK5) [nM]	IC50 (GRK2) [nM]	Compound
≤ 50	> 10000	COc1ccc([C@@H](C)NC(=O)/C=C/c2c[nH]c3ncc(-c4cc(Cl)cc(S(C)(=O)=O)c4)cc23)cc1OC [Example 247, (R,E)-3-(5-(3-chloro-5-(methylsulfonyl)phenyl)-1H-pyrrolo[2,3-b]pyridin-3-yl)-N-(1-(3,4-dimethoxyphenyl)ethyl)acrylamide]
50 to 100	> 10000	COc1ccc(C(C)NC(=O)/C=C/c2c[nH]c3ncc(-c4cnn(C)c4)cc23)cc1C1CC1 (centres unmarked) [Example 253, (E)-N-(1-(3-cyclopropyl-4-methoxyphenyl)ethyl)-3-(5-(1-methyl-1H-pyrazol-4-yl)-1H-pyrrolo[2,3-b]pyridin-3-yl)acrylamide]
≤ 50	1000 to 10000	COc1ccc([C@@H](C)NC(=O)/C(C#N)=C/c2c[nH]c3ncc(-c4ccc(CCN(C)C)cc4)cc23)cc1OC [Example 134]
100 to 500	> 10000	COc1ccc([C@@H](C)NC(=O)/C=C/c2c[nH]c3nccc(-c4ccc(C(N)=O)cc4)c23)cc1OC [Example 236, (R,E)-4-(3-(3-((1-(3,4-dimethoxyphenyl)ethyl)amino)-3-oxoprop-1-en-1-yl)-1H-pyrrolo[2,3-b]pyridin-4-yl)benzamide]
100 to 500	> 10000	COc1ccc([C@@H](C)NC(=O)/C(C#N)=C/c2c[nH]c3ncc(-c4ccccc4CN(C)C)cc23)cc1OC [Example 136]
1000 to 10000	> 10000	N#C/C(=C\c1c[nH]c2ncccc12)C(=O)NC(C#N)c1ccccc1 (centres unmarked) [Example 49, (E)-2-cyano-N-(cyano(phenyl)methyl)-3-(1H-pyrrolo[2,3-b]pyridin-3-yl)acrylamide]
1000 to 10000	> 10000	COc1ccc([C@@H](C)NC(=O)/C=C/c2c[nH]c3ncc(-c4ccccc4S(C)(=O)=O)cc23)cc1OC [Example 222, (R,E)-N-(1-(3,4-dimethoxyphenyl)ethyl)-3-(5-(2-(methylsulfonyl)phenyl)-1H-pyrrolo[2,3-b]pyridin-3-yl)acrylamide]
100 to 500	100 to 500	N#C/C(=C\c1c[nH]c2ncccc12)C(=O)NCc1ccc(F)c(F)c1 [Example 66, (E)-2-cyano-N-(3,4-difluorobenzyl)-3-(1H-pyrrolo[2,3-b]pyridin-3-yl)acrylamide]
100 to 500	> 10000	COc1ccc([C@@H](C)NC(=O)/C(C#N)=C/c2c[nH]c3ncc(-c4cccc(N(C)C)c4)cc23)cc1OC [Example 128, (R,E)-2-cyano-N-(1-(3,4-dimethoxyphenyl)ethyl)-3-(5-(3-(dimethylamino)phenyl)-1H-pyrrolo[2,3-b]pyridin-3-yl)acrylamide]
50 to 100	100 to 500	C[C@@H](NC(=O)/C(C#N)=C/c1c[nH]c2ncc(-c3ccc(N4CCN(C)CC4)cc3)cc12)c1ccc(F)cc1 [Example 180]
100 to 500	> 10000	COc1ccc([C@@H](C)NC(=O)/C(C#N)=C/c2c[nH]c3nc(Br)ccc23)cc1OC [Example 90, (R,E)-3-(6-bromo-1H-pyrrolo[2,3-b]pyridin-3-yl)-2-cyano-N-(1-(3,4-dimethoxyphenyl)ethyl)acrylamide]
≤ 50	100 to 500	COc1ccc([C@@H](C)NC(=O)/C=C/c2c[nH]c3ncc(-c4ccc(C5CCN(C)CC5)cc4)cc23)cc1OC [Example 196, (R,E)-N-(1-(3,4-dimethoxyphenyl)ethyl)-3-(5-(4-(1-methylpiperidin-4-yl)phenyl)-1H-pyrrolo[2,3-b]pyridin-3-yl)acrylamide]
1000 to 10000	> 10000	COc1ccc([C@@H](C)NC(=O)/C(C#N)=C/c2c[nH]c3ncc(-c4ccc(C(F)(F)F)cc4)cc23)cc1OC [Example 119]
